Test results reported in the supplement of paper PMC10307832.

Tests used:
Test in all cases: relative viability (nuclei count vs DMSO), 5 days (fraction); higher = more cells survive
[1] = compound: C1CNCCC1C2=CC(=NN2)C3=CC=NC=C3 + CS(=O)(=O)N1CCN(Cc2cc3nc(-c4cccc5[nH]ncc45)nc(N4CCOCC4)c3s2)CC1 [Pictilisib] (partner 1 µM)
How it was run: (§1)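 Relative viability divides the nuclei count in treated wells by that in vehicle wells. Lung cancer cell lines were seeded in 1536-well plates, dosed by pin tool the next day, and fixed and stained after 5 days in one step with final 0.05% Triton X-100, 1% formaldehyde and 1 ug/ml Hoechst. Dosing was a single drug or a fixed anchor-drug dose plus five library-drug doses (not always all listed) in √10 steps, and values are medians of duplicate plates imaged at 4×.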

[2] = compound: C[C@@H](N)c1ccc(C(=O)Nc2ccnc3[nH]ccc23)cc1 + CS(=O)(=O)CCNCc1ccc(-c2ccc3ncnc(Nc4ccc(OCc5cccc(F)c5)c(Cl)c4)c3c2)o1 [Lapatinib] (partner 2 µM)
How it was run: as §1

[3] = compound: O[C@H]1CC[C@H](Nc2ncc3nc(Nc4c(F)cc(F)cc4F)n([C@H]4CCOC4)c3n2)CC1 [Tanzisertib] + CC1(C)CCC(c2ccc(Cl)cc2)=C(CN2CCN(c3ccc(C(=O)NS(=O)(=O)c4ccc(N[C@H](CCN5CCOCC5)CSc5ccccc5)c(S(=O)(=O)C(F)(F)F)c4)cc3)CC2)C1 [Navitoclax] (partner 0.5 µM)
How it was run: as §1

[4] = compound: O[C@H]1CC[C@H](Nc2ncc3nc(Nc4c(F)cc(F)cc4F)n([C@H]4CCOC4)c3n2)CC1 [Tanzisertib] + C[C@]1(O)C[C@@H](c2nc(-c3ccc4ccc(-c5ccccc5)nc4c3)c3c(N)nccn32)C1 [Linsitinib] (partner 1 µM)
How it was run: as §1

Row | Cell Line | relative viability ([1]; first compound 0.08 µM) | relative viability ([1]; first compound 0.8 µM) | relative viability ([1]; first compound 2.53 µM) | relative viability ([1]; first compound 8 µM) | relative viability ([2]; first compound 0.04 µM) | relative viability ([2]; first compound 0.1265 µM) | relative viability ([2]; first compound 0.4 µM) | relative viability ([2]; first compound 1.265 µM) | relative viability ([2]; first compound 4 µM) | relative viability ([3]; first compound 0.08 µM) | relative viability ([3]; first compound 0.253 µM) | relative viability ([3]; first compound 0.8 µM) | relative viability ([3]; first compound 2.53 µM) | relative viability ([3]; first compound 8 µM) | relative viability ([4]; first compound 0.08 µM) | relative viability ([4]; first compound 0.253 µM) | relative viability ([4]; first compound 0.8 µM) | relative viability ([4]; first compound 2.53 µM) | relative viability ([4]; first compound 8 µM)
1 | NCI-H3122 | 0.59 | 0.549 | 0.694 | 0.587 | 0.966 | 1.04 | 1.08 | 0.875 | 0.981 | 1.03 | 1.02 | 1.04 | 1.07 | 0.972 | 1.03 | 1.05 | 1.09 | 0.898 | 1.03
2 | NCI-H2347 | 0.661 | 0.672 | 0.651 | 0.494 | 0.833 | 0.959 | 0.933 | 0.347 | 0.868 | 0.793 | 0.809 | 0.888 | 0.87 | 0.837 | 1.08 | 0.973 | 1.08 | 1.09 | 1.3
3 | HCC-44 | 0.585 | 0.648 | 0.716 | 0.593 | 1.09 | 1.02 | 1.04 | 1.18 | 0.916 | 1.18 | 0.985 | 0.992 | 0.916 | 0.973 | 0.683 | 0.74 | 0.673 | 0.602 | 0.724
4 | HCC-78 | 0.21 | – | 0.189 | 0.223 | 1.3 | 0.767 | 1.15 | 0.171 | 0.677 | 0.705 | 0.741 | 0.766 | 0.801 | 0.673 | 0.478 | 0.524 | 0.528 | 0.367 | 0.529
5 | COR-L23 | 0.824 | 0.903 | 0.924 | 0.832 | 0.948 | 1.01 | 0.897 | 0.895 | 0.576 | 1.15 | 1.05 | 0.979 | 1.24 | 1.03 | 1.09 | 0.874 | 0.896 | 1.02 | 0.934
6 | NCI-H1993 | 0.802 | 0.806 | 0.933 | 0.623 | 0.791 | 0.858 | – | 0.776 | 0.87 | 1.08 | 0.909 | 0.947 | 0.924 | 0.803 | 0.759 | 0.681 | 0.754 | 0.768 | 0.677
7 | NCI-H2405 | 0.442 | 0.441 | 0.373 | 0.366 | – | 1.18 | 1.05 | 0.487 | 0.351 | 0.968 | 0.837 | 1.02 | 1.03 | 0.688 | 0.954 | 0.881 | 0.968 | 0.904 | 0.702
8 | NCI-H2126 | 0.521 | 0.492 | 0.55 | 0.539 | 0.825 | 0.866 | 0.764 | 0.859 | 0.966 | 0.914 | 0.854 | 0.877 | 0.815 | 0.893 | 0.814 | 0.77 | 0.712 | 0.726 | 0.736
